Laboratory results: patent US20090099195A1 (ASTRAZENECA AB, priority 2007, published 2009)

Each compound was assayed against T1, hP2X3 (human Purinergic P2X receptors subtype 3), clone B (Homo sapiens, UniProt P56373) (assay: hP2X3 FLIPR calcium (Fluo-4) antagonist assay, clone B). Conditions: Human P2X3 FLIPR Clone B IC50 (nM), RLE cells expressing hP2X3 clone B (NM_002559); agonist 500 nM α,β-methylene-ATP.
T1 sequence (P56373 1-397): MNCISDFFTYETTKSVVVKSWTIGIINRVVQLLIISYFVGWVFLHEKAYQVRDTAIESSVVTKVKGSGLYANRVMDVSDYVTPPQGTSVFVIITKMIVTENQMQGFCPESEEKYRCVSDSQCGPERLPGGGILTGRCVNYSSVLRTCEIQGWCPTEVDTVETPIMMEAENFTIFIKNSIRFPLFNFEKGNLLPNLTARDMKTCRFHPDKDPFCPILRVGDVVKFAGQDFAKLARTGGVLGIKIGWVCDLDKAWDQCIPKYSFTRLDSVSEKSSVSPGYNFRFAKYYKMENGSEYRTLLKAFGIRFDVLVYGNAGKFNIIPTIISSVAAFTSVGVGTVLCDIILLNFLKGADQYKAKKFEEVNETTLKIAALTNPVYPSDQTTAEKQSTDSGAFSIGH

IC50 | Compound
870 nM | CC(C)N1Cc2c(NCc3cnc4ccccc4c3)nc(N3CCN4C(=O)CCC4C3)nc2C1=O (centres unmarked) [Example 135, 6-Isopropyl-2-(6-oxohexahydropyrrolo[1,2-a]pyrazin-2(1H)-yl)-4-(quinolin-3-ylmethylamino)-5H-pyrrolo[3,4-d]pyrimidin-7(6M)-one]
1400 nM | CC(C)N1Cc2c(NC(C)(C)Cc3ccc(Cl)cc3)nc(N3C[C@@H](C)O[C@@H](C)C3)nc2C1=O [Example 61, 4-{[2-(4-chlorophenyl)-1,1-dimethylethyl]amino}-2-[(2R,6S)-2,6-dimethylmorpholin-4-yl]-6-isopropyl-5,6-dihydro-7H-pyrrolo[3,4-d]pyrimidin-7-one]
1500 nM | COc1ccc(CNc2nc(N3CCN(C(C)=O)CC3)nc3c2CN(C(C)C)C3=O)c2cccnc12 [Example 240, 2-(4-acetylpiperazin-1-yl)-6-isopropyl-4-((8-methoxyquinolin-5-yl)methylamino)-5H-pyrrolo[3,4-d]pyrimidin-7(6H)-one]
1000 nM | CC(=O)N1CCN(c2nc(NC(C)(C)Cc3ccc(F)cc3)c3c(n2)C(=O)N(C(C)C)C3)C(C)C1 (centres unmarked) [Example 139, 2-(4-Acetyl-2-methyl-piperazin-1-yl)-4-[2-(4-fluoro-phenyl)-1,1-dimethyl-ethylamino]-6-isopropyl-5,6-dihydro-pyrrolo[3,4-d]pyrimidin-7-one]
1800 nM | CCC(Nc1nc(N2CCN(C(C)=O)CC2)nc2c1CN(C(C)C)C2=O)c1ccc(C)cc1 (centres unmarked) [Example 36, 2-(4-acetylpiperazin-1-yl)-6-isopropyl-4-{[1-(4-methylphenyl)propyl]amino}-5,6-dihydro-7H-pyrrolo[3,4-d]pyrimidin-7-one]
3900 nM | CC(=O)N1CCN(c2nc(NC(C)Cc3ccc(F)cc3)c3c(n2)C(=O)N(C(C)C)C3)CC1 (centres unmarked) [Example 12, 2-(4-acetylpiperazin-1-yl)-4-{[2-(4-fluorophenyl)-1-methylethyl]amino}-6-isopropyl-5,6-dihydro-7H-pyrrolo[3,4-d]pyrimidin-7-one]
230 nM | Cc1ccc(C(Nc2nc(N3CCOCC3)nc3c2CN(C(C)C)C3=O)c2ccccc2)cc1 (centres unmarked) [Example 76, 6-isopropyl-2-morpholin-4-yl-[(phenyl-p-tolyl-methyl)-amino]-5,6-dihydro-pyrrolo[3,4-d]pyrimidin-7-one]
320 nM | CC(C)N1Cc2c(NCc3cnc4ccccc4c3)nc(N3CCN(C)C(=O)C3)nc2C1=O [Example 210, 6-isopropyl-2-(4-methyl-3-oxopiperazin-1-yl)-4-(quinolin-3-ylmethylamino)-5H-pyrrolo[3,4-d]pyrimidin-7(6H)-one]
2200 nM | CC(C)N1Cc2c(NC(C)(C)Cc3ccc(Cl)cc3)nc(N3CCN(C(=O)N(C)C)CC3)nc2C1=O [Example 127, 4-(4-{[2-(4-chlorophenyl)-1,1-dimethylethyl]amino}-6-isopropyl-7-oxo-6,7-dihydro-5H-pyrrolo[3,4-d]pyrimidin-2-yl)-N,N-dimethylpiperazine-1-carboxamide]
80 nM | CC(=O)N1CCN(c2nc(N[C@H](C)c3ccc(OC(C)C)cc3)c3c(n2)C(=O)N(C(C)C)C3)CC1 [Example 176, (R)-2-(4-acetylpiperazin-1-yl)-4-(1-(4-isopropoxyphenyl)ethylamino)-6-isopropyl-5H-pyrrolo[3,4-d]pyrimidin-7(6H)-one]
3800 nM | CC(C)N1Cc2c(NC(C)(C)Cc3ccc(Cl)cc3)nc(N3CCN(C(=O)C(C)(C)C)CC3)nc2C1=O [Example 125, 4-{[2-(4-chlorophenyl)-1,1-dimethylethyl]amino}-2-[4-(2,2-dimethylpropanoyl)piperazin-1-yl]-6-isopropyl-5,6-dihydro-7H-pyrrolo[3,4-d]pyrimidin-7-one]
85 nM | Cc1ccc(C(Nc2nc(NCCN(C)C)nc3c2CN(C(C)C)C3=O)c2ccccc2)cc1 (centres unmarked) [Example 7, 2-{[2-(dimethylamino)ethyl]amino}-6-isopropyl-4-{[(4-methylphenyl)(phenyl)methyl]amino}-5,6-dihydro-7H-pyrrolo[3,4-d]pyrimidin-7-one]
8800 nM | CC(=O)N1CCN(c2nc(NCc3ccc(-c4ccccc4)nc3)c3c(n2)C(=O)N(C(C)C)C3)CC1 [Example 228, 2-(4-acetylpiperazin-1-yl)-6-isopropyl-4-((6-phenylpyridin-3-yl)methylamino)-5H-pyrrolo[3,4-d]pyrimidin-7(6H)-one]
940 nM | CC(=O)N1CCN(c2nc(NCc3n[nH]c4c3CCC4)c3c(n2)C(=O)N(C(C)C)C3)CC1 [Example 151, 4-(4-acetylpiperazin-1-yl)-2-(6,7-diazabicyclo[3.3.0]octa-7,9-dien-8-ylmethylamino)-8-propan-2-yl-3,5,8-triazabicyclo[4.3.0]nona-1,3,5-trien-7-one]
670 nM | COCC(C)N1Cc2c(NC(C)(C)Cc3ccc(F)cc3)nc(N3CCN(C(C)=O)CC3)nc2C1=O (centres unmarked) [Example 314, 2-(4-acetylpiperazin-1-yl)-4-(1-(4-fluorophenyl)-2-methylpropan-2-ylamino)-6-(1-methoxypropan-2-yl)-5H-pyrrolo[3,4-d]pyrimidin-7(6H)-one]
380 nM | CC(=O)N(Cc1cc2ccccc2cn1)c1nc(N2CCN(C(C)=O)[C@@H](C)C2)nc2c1CN(C(C)C)C2=O [Example 325, (S)—N-(2-(4-acetyl-3-methylpiperazin-1-yl)-6-isopropyl-7-oxo-6,7-dihydro-5H-pyrrolo[3,4-d]pyrimidin-4-yl)-N-(isoquinolin-3-ylmethyl)acetamide]
150 nM | CC(=O)N1CCN(c2nc3c(c(N4CCCC4Cc4ccc(Cl)cc4)n2)CN(C(C)C)C3=O)CC1 (centres unmarked) [Example 50, 2-(4-acetylpiperazin-1-yl)-4-[2-(4-chlorobenzyl)pyrrolidin-1-yl]-6-isopropyl-5,6-dihydro-7H-pyrrolo[3,4-d]pyrimidin-7-one]
18000 nM | COc1ccccc1CC(C)(C)Nc1nc(N2CCN(C(C)=O)CC2)nc2c1CN(C(C)C)C2=O [Example 195, 2-(4-acetylpiperazin-1-yl)-6-isopropyl-4-(1-(2-methoxyphenyl)-2-methylpropan-2-ylamino)-5H-pyrrolo[3,4-d]pyrimidin-7(6H)-one]
240 nM | CCC(=O)N1CCN(c2nc(NC(c3ccccc3)c3ccccc3)c3c(n2)C(=O)N(C(C)C)C3)CC1 [Example 87, 4-(Benzhydryl-amino)-6-isopropyl-2-(4-propionyl-piperazin-1-yl)-5,6-dihydro-pyrrolo[3,4-d]pyrimidin-7-one]
160 nM | CCCc1ccc(C(C)Nc2nc(N3CCN(C(C)=O)CC3)nc3c2CN(C(C)C)C3=O)cc1 (centres unmarked) [Example 29, 2-(4-acetylpiperazin-1-yl)-6-isopropyl-4-{[1-(4-propylphenyl)ethyl]amino}-5,6-dihydro-7H-pyrrolo[3,4-d]pyrimidin-7-one]
5400 nM | CCOc1ccccc1[C@@H](C)Nc1nc(N2CCN(C(C)=O)CC2)nc2c1CN(C(C)C)C2=O [Example 173, (R)-2-(4-acetylpiperazin-1-yl)-4-(1-(2-ethoxyphenyl)ethylamino)-6-isopropyl-5H-pyrrolo[3,4-d]pyrimidin-7(6H)-one]
1100 nM | CCN1Cc2c(NC(C)(C)Cc3ccc(F)cc3)nc(N3CCN(C(C)=O)CC3)nc2C1=O [Example 118, 2-(4-acetylpiperazin-1-yl)-6-ethyl-4-{[2-(4-fluorophenyl)-1,1-dimethylethyl]amino}-5,6-dihydro-7H-pyrrolo[3,4-d]pyrimidin-7-one]
250 nM | CC(C)N1Cc2c(NC(c3ccccc3)c3ccccc3)nc(NCc3cccnc3)nc2C1=O [Example 94, 4-(Benzhydryl-amino)-6-isopropyl-2-[(pyridin-3-ylmethyl)-amino]-5,6-dihydro-pyrrolo[3,4-d]pyrimidin-7-one]
680 nM | CC(C)N1Cc2c(NCc3cnc4ccccc4c3)nc(N3CCC(F)(F)C3)nc2C1=O [Example 216, 2-(3,3-difluoropyrrolidin-1-yl)-6-isopropyl-4-(3-quinolymethylamino)-5H-pyrrolo[3,4-d]pyrimidin-7-one]
2200 nM | CC(=O)NCCNc1nc2c(c(N3CCCC3Cc3ccc(Cl)cc3)n1)CN(C(C)C)C2=O (centres unmarked) [Example 45, N-[2-({4-[2-(4-chlorobenzyl)pyrrolidin-1-yl]-6-isopropyl-7-oxo-6,7-dihydro-5H-pyrrolo[3,4-d]pyrimidin-2-yl}amino)ethyl]acetamide]
100 nM | CC(=O)N1CCN(c2nc(NCC(c3ccccc3)c3ccccc3)c3c(n2)C(=O)N(C(C)C)C3)CC1 [Example 91, 2-(4-acetylpiperazin-1-yl)-4-[(2,2-diphenylethyl)amino]-6-isopropyl-5,6-dihydro-7H-pyrrolo[3,4-d]pyrimidin-7-one]
3800 nM | CC(C)CN1Cc2c(NC(c3ccccc3)c3ccccc3)nc(N3CCOCC3)nc2C1=O [Example 73, 4-(Benzhydryl-amino)-6-isobutyl-2-morpholin-4-yl-5,6-dihydro-pyrrolo[3,4-d]pyrimidin-7-one]
2000 nM | CC(C)N1Cc2c(nc(N3CCNC(=O)C3)nc2N2CCCC2Cc2ccc(Cl)cc2)C1=O (centres unmarked) [Example 49, 4-[2-(4-chlorobenzyl)pyrrolidin-1-yl]-6-isopropyl-2-(3-oxopiperazin-1-yl)-5,6-dihydro-7H-pyrrolo[3,4-d]pyrimidin-7-one]
4300 nM | O=C1c2nc(N3CCOCC3)nc(NC(c3ccccc3)c3ccccc3)c2CN1C1CC1 [Example 74, 4-(Benzhydryl-amino)-6-cyclopropyl-2-morpholin-4-yl-5,6-dihydro-pyrrolo[3,4-d]pyrimidin-7-one]
